What was measured:
[1] = test system: HepG2 cells (liver cancer cells); assay: Trypan blue staining of cancer cells after treatment; format: cell-based; details: 1 μM, 24 h
Protocol: (§1) • 1) HeLa cells (cervical cancer cells), MDA-MB-231 cells (triple negative breast cancer cells) and HepG2 cells (liver cancer cells) were seeded into 6 cm culture dishes; • 2) The small molecule compound cenpemlin or DMSO was added at a final concentration of 1 μM to treat the cells for 24 h; • 3) The cells were digested with trypsin and the cell suspension was taken for trypan blue staining; • 4) The blue-stained cells were observed and counted under an ordinary optical microscope.

[2] = test system: HeLa cells (cervical cancer cells); assay: as above; format: cell-based; details: 1 μM, 24 h
Protocol: as §1

[3] = test system: MDA-MB-231 cells (triple negative breast cancer cells); assay: as above; format: cell-based; details: 1 μM, 24 h
Protocol: as §1

[4] = test system: liver cancer cells MHCC97-H cells; assay: Liver implantation model of luciferase-stable liver cancer cells in mice, luciferase imaging; format: in vivo, NOD/SCID mice; details: intraperitoneal injection, 11th day of administration; cenpemlin 2 mg/kg
Protocol: • 1) According to the published experimental protocol (Chen et al., 2011. Cancer Res), we implanted luciferase-stable liver cancer cells MHCC97-H cells (5×10^6 in 0.1 mL saline) into the liver of 6-week-old female NOD/SCID mice. The experiment was divided into three groups, namely the DMSO control group, the paclitaxel group and the cenpemlin group (2 mg/kg), with 10 mice in each group. • 2) After 14 days of modeling (successful modeling of luciferase test), the DMSO control group, the paclitaxel group and the cenpemlin experimental group (2 mg/kg) were intraperitoneally injected (0.2 mL per mouse; 0.1 mL was injected on both sides) […]. • 3) After four injections every other day (the 11th day of administration), the luciferase test was performed.

[5] = test system: HeLa cells; assay: Elution (washout) effect, real-time live cell imaging after MG132 and compound treatment; format: cell-based; details: 1 h with MG132 20 μM and compound, then washed out
Protocol: • 1) Seed HeLa cells into 35 mm live-cell imaging dishes; • 2) transfect plasmid DNA after 24 h: GFP-tubulin and mCherry-H2B (the density of transfected plasmid cells is 70%-80%); • 3) replace with fresh culture medium 6 h after transfection and add MG132 at a final concentration of 20 μM and cenpemlin or DMSO to treat the cells for 1 h; • 4) turn on the Applied Precision Personal DV microscope and the thermostat to stabilize the temperature at 37° C.; • 5) wash the cells three times with PBS prewarmed at 37° C. to release the cells, and then replace with fresh culture medium to continue culturing; • 6) immediately after release, replace the cell culture medium with CO2-independent Medium; • 7) place the cells on the 37° C. thermostat stage of the DV microscope and imaging in real time by a 60×, NA=1.42 lens, taking one frame every 3 min.

[6] = molecular target: T1, interaction between CENP-M and CENP-L (Homo sapiens, UniProt Q9NSP4); assay: Co-immunoprecipitation of GFP-CENP-M with FLAG-CENP-L from treated HEK293T cells, immunoblot; format: cell-based; details: 1 μM, 1 h, FLAG beads pull-down
T1 construct: expressed in transfected cells; host or cells: HEK293T
Protocol: • 1) Inoculate HEK293T cells into 6 cm culture dishes; • 2) transfect plasmid DNA: GFP-CENP-M and FLAG-CENP-L after 24 h (the density of cells is 70%-80%); • 3) replace with fresh culture medium 4 h after transfection and continue to culture for 24 h; • 4) add cenpemlin with a final concentration of 1 μM or the same volume of DMSO to treat cells for 1 h; • 5) scrape the cells with a cell scraper, collect them in a centrifuge tube, and remove the culture medium by centrifugation at 1,000 rpm; • 6) add cell lysis buffer for ultrasonic disruption, and centrifuge at 12,000 rpm for 10 min; • 7) take the supernatant and incubate with FLAG beads for 4 h; • 8) wash the beads for three times with cell lysis buffer, boil the sample with sample buffer, and then perform electrophoresis and immunoblot analysis.

[7] = test system: HeLa cells; assay: Real-time live cell imaging of mitosis (mitotic arrest); format: cell-based; details: 1 μM
Protocol: • 1) Inoculate HeLa cells into 35 mm live cell culture dishes; • 2) transfect plasmid DNA: GFP-tubulin and mCherry-H2B after 24 h (the density of transfected plasmid cells is 70%-80%); • 3) replace with fresh culture medium 6 h after transfection and add 2 mM Thymidine to treat cells for 14-16 h; • 4) wash cells 3 times with PBS preheated at 37° C. to release cells, then replace with fresh culture medium to continue culturing; • 5) turn on the Applied Precision Personal DV microscope and thermostat to stabilize the temperature at 37° C.; • 6) 8-9 h after release, replace the cell culture medium with CO2-independent Medium, add cenpemlin with a final concentration of 1 μM or the same volume of DMSO; • 7) place the cells on the 37° C. thermostat stage of the DV microscope and shoot real-time under a 60×, NA=1.42 lens, taking one frame every 3 min.

[8] = test system: HeLa cells stably expressing GFP-CENP-N; assay: Chromosome alignment phenotype in mitosis, immunofluorescence imaging; format: cell-based; details: 1 μM, 1 h, after thymidine release
Protocol: • 1) HeLa cells stably expressing GFP-CENP-N were seeded on a round coverslip with a diameter of 12 mm; • 2) after 24 h, Thymidine was added to the cells at a final concentration of 2 mM for 14-16 h; • 3) the cells were washed three times with PBS prewarmed at 37° C. to elute Thymidine, and fresh culture medium was added to continue culturing for 8 h; • 4) cempelin was added to the experimental group at a final concentration of 1 μM, and the control group was added with an equal volume of DMSO for 1 h; • 5) the cells were fixed with PBS buffer containing 3.7% formaldehyde for 10 min; • 6) after 0.2% TritonX-100 permeabilization and 1% BSA blocking, ACA antibody was incubated at room temperature for 1 h; • 7) DAPI was stained for 3 min and then the slides were sealed; • 8) the slides were placed on the DV microscope stage and imaged by a 60×, NA=1.42 lens.

T1 sequence (Q9NSP4 whole entry): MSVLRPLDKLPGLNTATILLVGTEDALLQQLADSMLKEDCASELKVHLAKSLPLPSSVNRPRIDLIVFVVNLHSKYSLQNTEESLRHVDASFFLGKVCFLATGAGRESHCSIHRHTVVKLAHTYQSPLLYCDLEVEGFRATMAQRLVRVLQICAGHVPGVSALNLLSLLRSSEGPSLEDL

SMILES | proportion of trypan blue stained cells [1] | proportion of trypan blue stained cells [2] | proportion of trypan blue stained cells [3] | number of cancer cells in the liver of mice (luciferase test) [4] | spindle phenotype after elution [5] | time to exit mitosis after elution [5] | interaction between CENP-M and CENP-L compared with control group [6] | time after nuclear membrane rupture without entering the late stage ([7]; HeLa) | mitotic progression (delay) ([7]; HeLa GFP-tubulin/mCherry-H2B) | chromosome alignment in cell mitosis [8]
OCC(O)C(O)C(O)C(O)/C=N/Nc1nc(N2CCOCC2)nc(N2CCOCC2)n1 (centres unmarked) [cenpemlin] | increase | increase | increase | significantly reduced | multipolar spindles | 45 min | weakened | > 120 min | obvious mitotic delays | abnormal chromosome alignment
CC(=O)O[C@H]1C(=O)[C@@]2(C)[C@H]([C@H](OC(=O)c3ccccc3)[C@]3(O)C[C@H](OC(=O)[C@H](O)[C@@H](NC(=O)c4ccccc4)c4ccccc4)C(C)=C1C3(C)C)[C@]1(OC(C)=O)CO[C@@H]1C[C@@H]2O [paclitaxel, reference compound] |  |  |  | significantly reduced |  |  |  |  |  | 

From patent publication US20260125350A1, “CENTROMERE PROTEIN CENP-M SMALL MOLECULE INHIBITOR CENPEMLIN, AND PREPARATION METHOD THEREFOR AND USE THEREOF” (UNIVERSITY OF SCIENCE AND TECHNOLOGY OF CHINA, priority 2022, published 2026)
